{"source": "ChEMBL document CHEMBL5375956", "about": "“Discovery of Pyrazolo[1,5-a]pyrimidine Derivative as a Novel and Selective ALKBH5 Inhibitor for the Treatment of AML” (J Med Chem, 2023)", "key": {"RNA demethylase ALKBH5 [1]": {"biological_target": "T1, RNA demethylase ALKBH5 (Homo sapiens, UniProt Q6P6C2)", "assay": "Inhibition of ALKBH5 (66 to 292 residues)(unknown origin) expressed in Escherichia coli BL21(DE3) using 5'-ATTGTCA(m6A)CAGCAGA-FAM-3' as substrate incubated for 30 mins in presence of 2 uM of 2-OG by FP based competitive binding assay"}, "HUVEC [2]": {"system": "HUVEC", "assay": "Effect on c-Myc mRNA level in HUVEC cells at 5 to 10 uM incubated for 48 hrs by qRT-PCR analysis", "format": "functional, cell-based", "conditions": "Homo sapiens, dose 5-10 µM"}, "[3]": {"assay": "Toxicity in nude mouse xenografted with human MV4-11 cells assessed as heart weight change at 10 to 40 mg/kg, ip treated every day for 14 days", "format": "organism-based", "conditions": "in vivo, 336 h, dose 10-40 mg/kg, time 14 day"}, "MV4-11 [4]": {"system": "MV4-11", "assay": "Induction of apoptosis in human MV4-11 cells assessed as early apoptosis cells at 10 uM incubated for 48 hrs by Annexin V-FITC/PI staining based flow cytometry (reference value: 1.24 %)", "format": "functional"}, "MOLM-13 [5]": {"system": "MOLM-13", "assay": "Downregulation of c-Myc mRNA level in human MOLM-13 cells at 5 to 10 uM incubated for 48 hrs by qRT-PCR analysis", "format": "functional, cell-based", "conditions": "dose 5-10 µM"}, "RNA demethylase ALKBH5 [6]": {"biological_target": "T1, RNA demethylase ALKBH5", "assay": "Inhibition of ALKBH5 in HEK293 cells assessed as increase in m6A RNA level at 10 to 40 uM by colorimetric assay", "format": "cell-based", "conditions": "dose 10-40 µM"}, "[7]": {"assay": "Metabolic stability in rat liver microsomes assessed as clearance measured upto 240 mins by LC-MS/MS analysis", "format": "ADME, Microsome", "conditions": "read-out: CLH"}, "[8]": {"biological_target": "Alpha-ketoglutarate-dependent dioxygenase FTO (Homo sapiens, UniProt Q9C0B1)", "sequence (Q9C0B1 whole entry, looked up, the tested form may be a part)": "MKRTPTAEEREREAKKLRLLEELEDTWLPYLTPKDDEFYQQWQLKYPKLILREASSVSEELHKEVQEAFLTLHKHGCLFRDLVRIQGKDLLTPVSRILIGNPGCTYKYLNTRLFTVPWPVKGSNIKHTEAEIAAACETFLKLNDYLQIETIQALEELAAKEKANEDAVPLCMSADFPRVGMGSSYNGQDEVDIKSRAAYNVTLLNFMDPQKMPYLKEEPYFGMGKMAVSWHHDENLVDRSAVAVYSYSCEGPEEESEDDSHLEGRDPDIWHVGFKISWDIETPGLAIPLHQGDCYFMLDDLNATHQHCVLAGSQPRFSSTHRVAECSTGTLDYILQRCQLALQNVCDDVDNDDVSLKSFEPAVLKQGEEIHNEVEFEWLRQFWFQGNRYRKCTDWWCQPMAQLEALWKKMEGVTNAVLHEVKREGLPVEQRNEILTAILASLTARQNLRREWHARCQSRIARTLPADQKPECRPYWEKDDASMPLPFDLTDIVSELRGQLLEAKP", "assay": "Binding affinity to NT-647-NHS fluorescent dye-labeled FTO (32 to 505 residues)(unknown origin) expressed in Escherichia coli BL21(DE3) using m6A-ssDNA as substrate incubated for 15 mins by MST assay"}, "[9]": {"assay": "Toxicity in nude mouse xenografted with human MV4-11 cells assessed as kidney damage at 10 to 40 mg/kg, ip treated every day for 14 days by H and E staining based analysis", "format": "organism-based", "conditions": "in vivo, 336 h, dose 10-40 mg/kg, time 14 day"}, "MV4-11 [10]": {"system": "MV4-11", "assay": "Induction of apoptosis in human MV4-11 cells assessed as necrotic cells at 10 uM incubated for 48 hrs by Annexin V-FITC/PI staining based flow cytometry (reference value: 1.81 %)", "format": "functional"}, "[11]": {"assay": "Half life in Sprague-Dawley rat at 2 mg/kg, iv measured for 1 to 1440 mins by LC-MS/MS analysis", "format": "ADME, organism-based", "conditions": "in vivo, time 1-1440 min"}, "RNA demethylase ALKBH5 [12]": {"biological_target": "T1, RNA demethylase ALKBH5", "assay": "Binding affinity to ALKBH5 in human MOLM-13 cells assessed as thermal shift heating at 200 uM incubated for 30 mins followed by heating at 45 to 67 degreeC measured for 3 mins by CETSA assay", "format": "cell-based"}, "[13]": {"assay": "Toxicity in nude mouse xenografted with human MV4-11 cells assessed as liver weight change at 10 to 40 mg/kg, ip treated every day for 14 days", "format": "organism-based", "conditions": "in vivo, 336 h, dose 10-40 mg/kg, time 14 day"}, "MOLM-13 [14]": {"system": "MOLM-13", "assay": "Induction of apoptosis in human MOLM-13 cells assessed as viable cells at 5 uM incubated for 48 hrs by Annexin V-FITC/PI staining based flow cytometry (reference value: 89.8 %)", "format": "functional", "conditions": "read-out: Activity"}, "MOLM-13 [15]": {"system": "MOLM-13", "assay": "Downregulation of c-Myc level in human MOLM-13 cells upto 10 uM incubated for 48 hrs by Western blot analysis", "format": "functional, cell-based"}, "RNA demethylase ALKBH5 [16]": {"biological_target": "T1, RNA demethylase ALKBH5", "assay": "Binding affinity to biotinylated ALKBH5 (66 to 292 residues)(unknown origin) expressed in Escherichia coli BL21(DE3) assessed as equilibrium dissociation constant by BLI assay"}, "MOLM-13 [17]": {"system": "MOLM-13", "assay": "Induction of apoptosis in human MOLM-13 cells assessed as late apoptosis cells at 5 uM incubated for 48 hrs by Annexin V-FITC/PI staining based flow cytometry (reference value: 6.49 %)", "format": "functional"}, "[18]": {"assay": "Metabolic stability in human plasma assessed as half life measured upto 240 mins by LC-MS/MS analysis", "format": "ADME, cell-free"}, "HUVEC [19]": {"system": "HUVEC", "assay": "Effect on TACC3 mRNA level in HUVEC cells at 5 to 10 uM incubated for 48 hrs by qRT-PCR analysis", "format": "functional, cell-based", "conditions": "Homo sapiens, dose 5-10 µM"}, "MV4-11 [20]": {"system": "MV4-11", "assay": "Induction of apoptosis in human MV4-11 cells assessed as late apoptosis cells at 5 uM incubated for 48 hrs by Annexin V-FITC/PI staining based flow cytometry (reference value: 7.17 %)", "format": "functional"}, "MOLM-13 [21]": {"system": "MOLM-13", "assay": "Induction of apoptosis in human MOLM-13 cells assessed as early apoptosis cells at 5 uM incubated for 48 hrs by Annexin V-FITC/PI staining based flow cytometry (reference value: 2.72 %)", "format": "functional"}, "MV4-11 [22]": {"system": "MV4-11", "assay": "Induction of apoptosis in human MV4-11 cells assessed as late apoptosis cells at 10 uM incubated for 48 hrs by Annexin V-FITC/PI staining based flow cytometry (reference value: 7.17 %)", "format": "functional"}, "RNA demethylase ALKBH5 [23]": {"biological_target": "T1, RNA demethylase ALKBH5", "assay": "Inhibition of ALKBH5 (66 to 292 residues)(unknown origin) expressed in Escherichia coli BL21(DE3) using 5'-ATTGTCA(m6A)CAGCAGA-FAM-3' as substrate incubated for 30 mins in presence of 20 uM of 2-OG by FP based competitive binding assay"}, "[24]": {"assay": "Apparent oral clearance in Sprague-Dawley rat at 2 mg/kg, iv measured for 1 to 1440 mins by LC-MS/MS analysis", "format": "ADME, organism-based", "conditions": "in vivo, time 1-1440 min"}, "[25]": {"assay": "Apparent volume of distribution during terminal phase in Sprague-Dawley rat at 2 mg/kg, iv measured for 1 to 1440 mins by LC-MS/MS analysis", "format": "ADME, organism-based", "conditions": "in vivo, time 1-1440 min"}, "RNA demethylase ALKBH5 [26]": {"biological_target": "T1, RNA demethylase ALKBH5", "assay": "Inhibition of ALKBH5 (66 to 292 residues)(unknown origin) expressed in Escherichia coli BL21(DE3) using 5'-ATTGTCA(m6A)CAGCAGA-FAM-3' as substrate incubated for 30 mins in presence of 200 uM of 2-OG by FP based competitive binding assay"}, "MV4-11 [27]": {"system": "MV4-11", "assay": "Antitumor activity against human MV4-11 cells xenografted in nude mouse assessed as tumor growth inhibition at 20 mg/kg, ip treated every day for 14 days relative to control", "format": "functional", "conditions": "MV4-11, 336 h, time 14 day, read-out: TGI"}, "MV4-11 [28]": {"system": "MV4-11", "assay": "Downregulation of TACC3 level in human MV4-11 cells upto 10 uM incubated for 48 hrs by Western blot analysis", "format": "functional, cell-based"}, "[29]": {"biological_target": "T2, Alpha-ketoglutarate-dependent dioxygenase alkB homolog 3 (Homo sapiens) (UniProt Q96Q83)", "T2 sequence (whole entry)": "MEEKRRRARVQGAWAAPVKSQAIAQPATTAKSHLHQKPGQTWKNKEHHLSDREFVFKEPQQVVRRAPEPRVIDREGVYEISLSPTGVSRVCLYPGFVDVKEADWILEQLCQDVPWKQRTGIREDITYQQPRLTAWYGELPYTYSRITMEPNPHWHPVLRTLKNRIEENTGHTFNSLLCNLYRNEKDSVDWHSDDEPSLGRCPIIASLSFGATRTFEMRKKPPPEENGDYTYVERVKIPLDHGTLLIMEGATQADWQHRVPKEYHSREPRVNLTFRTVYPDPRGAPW", "assay": "Inhibition of ALKBH3 (62 to 286 residues)(unknown origin) expressed in Escherichia coli BL21(DE3) using 5'-TAGACATTGCCATTCTCGATAGG(m6A)-TCCGGTCAAACCTAGACGAATTCCA-3' as substrate at 100 uM incubated for 2 hrs by restriction endonuclease digestion assay"}}, "note": "Active and inactive are the calls of the source. The calls are words filed in the database; no cut-off is given here."}
{"smiles": "O=C(OCc1ccc(C(F)(F)F)cc1)c1ccc(-c2cc3ncc(C(=O)c4c(O)ccc([N+](=O)[O-])c4O)cn3n2)cc1", "values": [{"measurement": "IC50", "setting": "RNA demethylase ALKBH5 [1]", "value": 4.64, "unit": "µM"}, {"measurement": "Activity", "setting": "HUVEC [2]", "value": "inactive"}, {"measurement": "Activity", "setting": "[3]", "value": "Non-Toxic"}, {"measurement": "Activity", "setting": "MV4-11 [4]", "value": 2.59, "unit": "%"}, {"measurement": "Activity", "setting": "MOLM-13 [5]", "value": "Active"}, {"measurement": "inhibition", "setting": "RNA demethylase ALKBH5 [6]", "value": "Active"}, {"measurement": "microsomal CLint", "setting": "[7]", "value": 100, "unit": "µL/min/mg"}, {"measurement": "Activity", "setting": "[8]", "value": "inactive"}, {"measurement": "Activity", "setting": "[9]", "value": "Non-Toxic"}, {"measurement": "Activity", "setting": "MV4-11 [10]", "value": 2.15, "unit": "%"}, {"measurement": "half-life", "setting": "[11]", "value": 0.612, "unit": "h"}, {"measurement": "Activity", "setting": "RNA demethylase ALKBH5 [12]", "value": "Active"}, {"measurement": "Activity", "setting": "[13]", "value": "Non-Toxic"}, {"measurement": "viability at 5 µM", "setting": "MOLM-13 [14]", "value": 77.2, "unit": "%"}, {"measurement": "Activity", "setting": "MOLM-13 [15]", "value": "Active"}, {"measurement": "Kd", "setting": "RNA demethylase ALKBH5 [16]", "value": 6.62, "unit": "µM"}, {"measurement": "Activity", "setting": "MOLM-13 [17]", "value": 16.5, "unit": "%"}, {"measurement": "half-life", "setting": "[18]", "value": 10.4, "unit": "h"}, {"measurement": "Activity", "setting": "HUVEC [19]", "value": "inactive"}, {"measurement": "Activity", "setting": "MV4-11 [20]", "value": 36, "unit": "%"}, {"measurement": "Activity", "setting": "MOLM-13 [21]", "value": 2.91, "unit": "%"}, {"measurement": "Activity", "setting": "MV4-11 [22]", "value": 55.4, "unit": "%"}, {"measurement": "IC50", "setting": "RNA demethylase ALKBH5 [23]", "value": 4.32, "unit": "µM"}, {"measurement": "CL/F", "setting": "[24]", "value": 5, "unit": "mL/min/kg"}, {"measurement": "Vz/F", "setting": "[25]", "value": 0.2636, "unit": "L/kg"}, {"measurement": "IC50", "setting": "RNA demethylase ALKBH5 [26]", "value": 4.46, "unit": "µM"}, {"measurement": "inhibition in vivo at 20 mg/kg", "setting": "MV4-11 [27]", "value": 68.9, "unit": "%"}, {"measurement": "Activity", "setting": "MV4-11 [28]", "value": "Active"}, {"measurement": "inhibition", "setting": "[29]", "value": "inactive"}]}
